Experimental data reported in patent publication US20230255988A1 (CORNELL UNIVERSITY, priority 2020, published 2023).

Assays:
Format in all cases: in vivo, human
[1] = tested on: amyloid positive patients with amnestic mild cognitive impairment (aMCI) or mild dementia due to AD; test: AD Assessment Scale-Cognitive Subscale (ADAS-Cog), 12-month randomized placebo-controlled trial
Excerpt: ADAS-cog served as the primary endpoint. […] Assignment of patients. […] Using blocked, stratified randomization design, patients were assigned to the treatment or control group. […] Within this group, a separate randomization schedule was generated using the proc plan function in SAS statistics program for those with an MMSE greater than or less than or equal to 26 to balance their allocation patients to placebo or treatment groups. Using a block size of four for a total of seventy-six patients, 19 blocks were created to help ensure balanced recruitment into treatment and control groups within strata. The schedule was generated in advance by the statistician and provided to the blinded pharmacist in charge of executing the randomization. Two randomization worksheets stratified by MMSE were provided to the pharmacist, who randomized the patients. […] The patients were enrolled by the clinical study team and randomized by the pharmacist. The assignment to the treatment or placebo group was known only to the pharmacist and kept behind a triple lock. The patients received numbered bottles. The trial duration per participant was twelve months. […] AD Assessment Scale-Cognitive Subscale (ADAS-Cog) was the primary outcome measure. It indicates the severity of the most important symptoms of Alzheimer's disease. It consists of 11 tasks measuring the disturbances of memory, language, praxis, attention and other cognitive abilities (S. Balsis et al., Alzheimer's & Dementia, 8, 288-294, 2012; […] al., International Psychogeriatrics, 9, 123-138, 1997). The primary clinical outcome was ADAS-Cog, and secondary outcomes included the CDR score and fluorodeoxyglucose ([…]) imaging of the brain. AGE levels were an exploratory outcome. The primary analysis followed Intention-to-Treat (ITT) and the secondary analysis was per-protocol. The per-protocol analysis omitted one placebo participant who took benfotiamine from a commercial vendor. The ITT and per-protocol analysis are presented for the primary outcome ADAS-cog and the secondary measure CDR. For the other measures, only per-protocol analysis are presented. The primary analysis was done on the ITT data. The Last-Observation-Carry-Forward (LOCF) method was used to impute the missing values of ADAS total score and the secondary endpoints such as CDR as well for each time point. The primary analysis was done on ITT data which were imputed with LOCF method. Per-protocol analysis was done as a sensitivity analysis and as observational comparisons (F. J. Molnar et al., Canadian Medical Association Journal, 179, 751, 2008).

[2] = tested on: brain glucose utilization; test: FDG PET imaging of glucose metabolism, regions of interest
Excerpt: Image acquisition, processing, and measurement. FDG PET imaging of glucose metabolism was acquired at baseline and after 12 months of treatment. All scans were acquired on a Siemens MCT 64 PET/CT PET-CT scanner at CUIMC. Study participants were maintained in an awake, at rest state with eyes and ears open in dim lighting during tracer uptake. Forty minutes after injection of the tracer, the emission image was acquired in four contiguous 5-minute frames. Frames were aligned with SPM 12, averaged, and then spatially normalized to the MNI template using SPM12 (https://www.fil.ion.ucl.ac.uk/spm/software/spm12/), resulting in one image per participant for each time point. Average voxel values within 90 regions of interest (ROIs) in the Automated Anatomic Labeling (AAL) Atlas were computed. […] The paracentral lobule and cerebellum were included as reference regions given their relative preservation during AD progression.

[3] = tested on: amyloid positive patients with amnestic mild cognitive impairment (aMCI) or mild dementia due to AD; test: Safety profile / adverse events in 12-month trial
Excerpt: The trial duration per participant was twelve months.
Pre-screening of 634 patients at the METS at the Burke Rehabilitation Hospital excluded all but 120 participants (FIG. 1). Only eighty-three of these patients were amyloid positive. Twelve declined to participate. Seventy-one of these participants agreed to be part of the trial, and were randomized to receive either placebo or benfotiamine. Eight subjects were prematurely discontinued from the trial prior to Month 12. Three participants were withdrawn due to non-compliance <80%; three withdrew consent due to unwillingness to complete study procedures; one participant was lost to follow-up and one was withdrawn by PI due to physical limitations. None of the participants randomized to the treatment group withdrew due to adverse reactions or adverse effects. […] After the trial completion and after the data were locked, one patient in the placebo group was determined to be on benfotiamine from another source and was excluded from the per-protocol analysis.

C/C(=C(\CCOP(=O)(O)O)SC(=O)c1ccccc1)N(C=O)Cc1cnc(C)nc1N [benfotiamine]
ADAS-cog change from baseline at 12 months ([1]; ITT analysis, 2×300 mg per day, 12 months, placebo 3.26): 1.39 | ADAS-cog unadjusted change baseline to 12 months, difference versus placebo ([1]; ITT, mixed effect model p=0.071, GEE p=0.137, Wilcoxon p=0.098): favoring benfotiamine | ADAS score change Mean (SD), baseline to month 12 ([1]; Per-protocol, unadjusted, 2×300 mg per day, placebo 3.2 (5.66)): 0.96 (5.41) | ADAS-cog effect modification by APOE ε4 allele carrier status ([1]; exploratory): no effect modification | ADAS-cog effect modification by sex ([1]; exploratory, not statistically significant): males might have been more responsive | ADAS-cog response by baseline MMSE ([1]; post-hoc, MMSE>=26 p=0.027, MMSE<26 p=0.99): stronger response among those with a higher MMSE at baseline | FDGPET Month_12 - Baseline change, Entorhinal_cortex Left ([2]; n = 34, 2×300 mg per day): −0.02 (0.11) | FDGPET Month_12 - Baseline change, Entorhinal_cortex Right ([2]; n = 34, 2×300 mg per day): −0.02 (0.10) | FDGPET Month_12 - Baseline change, Frontal cortex Left ([2]; n = 34, 2×300 mg per day): −0.03 (0.04) | FDGPET Month_12 - Baseline change, Frontal cortex Right ([2]; n = 34, 2×300 mg per day): −0.03 (0.04) | FDGPET Month_12 - Baseline change, Hippocampus Left ([2]; n = 34, 2×300 mg per day): −0.01 (0.04) | FDGPET Month_12 - Baseline change, Hippocampus Right ([2]; n = 34, 2×300 mg per day): −0.02 (0.04) | FDGPET Month_12 - Baseline change, Medial temporal Left ([2]; n = 34, 2×300 mg per day): −0.03 (0.04) | FDGPET Month_12 - Baseline change, Medial temporal Right ([2]; n = 34, 2×300 mg per day): −0.03 (0.05) | FDGPET Month_12 - Baseline change, Parietal Left ([2]; n = 34, 2×300 mg per day): −0.02 (0.05) | FDGPET Month_12 - Baseline change, Parietal Right ([2]; n = 34, 2×300 mg per day): −0.02 (0.04) | FDGPET Month_12 - Baseline change, Percuneus Left ([2]; n = 34, 2×300 mg per day): −0.03 (0.04) | FDGPET Month_12 - Baseline change, Percuneus Right ([2]; n = 34, 2×300 mg per day): −0.03 (0.04) | FDGPET Month_12 - Baseline change, Posterior cingulate Left ([2]; n = 34, 2×300 mg per day): −0.02 (0.03) | FDGPET Month_12 - Baseline change, Posterior cingulate Right ([2]; n = 34, 2×300 mg per day): −0.02 (0.03) | FDGPET Month_12 - Baseline change, Prefrontal_cortex Left ([2]; n = 34, 2×300 mg per day): −0.02 (0.04) | FDGPET Month_12 - Baseline change, Prefrontal_cortex Right ([2]; n = 34, 2×300 mg per day): −0.03 (0.04) | FDGPET Month_12 - Baseline change, Whole_brain ([2]; n = 34, 2×300 mg per day): −0.01 (0.02) | FDGPET in pre-specified regions of interest, benfotiamine versus placebo ([2]; paracentral lobule and cerebellum as reference region): No significant differences | adverse events related to benfotiamine ([3]; 2×300 mg benfotiamine per day, twelve months): No adverse events | safety of administration in patients with aMCI and dementia due to AD ([3]; overall conclusion): safe | withdrawal due to adverse reactions or adverse effects ([3]; participants randomized to the treatment group): None | Allergy, number of patients (%) ([3]; treatment n = 34, 12 months): 0 (0%) | Anxiety, number of patients (%) ([3]; treatment n = 34, 12 months): 5 (14%) | Bruise, number of patients (%) ([3]; treatment n = 34, 12 months): 2 (6%) | Cold symptoms, number of patients (%) ([3]; treatment n = 34, 12 months): 3 (8%) | Depression, number of patients (%) ([3]; treatment n = 34, 12 months): 1 (3%) | Dizziness, number of patients (%) ([3]; treatment n = 34, 12 months): 3 (8%) | Fall, number of patients (%) ([3]; treatment n = 34, 12 months): 6 (17%) | Gastrointestinal problem, number of patients (%) ([3]; treatment n = 34, 12 months): 9 (26%) | Head injury, number of patients (%) ([3]; treatment n = 34, 12 months): 0 (0%) | Heart arrhythmia, number of patients (%) ([3]; treatment n = 34, 12 months): 1 (3%) | Pain, number of patients (%) ([3]; treatment n = 34, 12 months): 5 (14%) | Pneumonia, number of patients (%) ([3]; treatment n = 34, 12 months): 0 (0%) | Sprain, number of patients (%) ([3]; treatment n = 34, 12 months): 0 (0%) | Stroke, number of patients (%) ([3]; treatment n = 34, 12 months): 2 (6%) | Surgery, number of patients (%) ([3]; treatment n = 34, 12 months): 1 (3%) | Total adverse events ([3]; treatment n = 34, 12 months, placebo 59): 38
